Measured values reported in patent US7074925B1, “N-substituted derivatives of 5-oxyiminobarbituric acid” (priority 1998, dated 2006).
In brackets after ≈: the same amount, converted by molar mass.

Key:
[1] = Antioxidant action, riboflavine chemiluminescence; type: biochemical; conditions: solvent water, phosphate buffer pH 9.1
Text: To assess a general antioxidant activity the method of riboflavine chemiluminescence was used. The test substance was introduced into a system consisted of phosphate buffer (pH 9.1), solution of riboflavine, and solution of bivalent iron sulfate. Chemiluminescence was initiated by 0.1% solution of hydrogen peroxide and registered by means of luminometer. […] Ascorbic acid was used as a reference agent.

[2] = system: Mycobacterium tuberculosis H37RV; assay: Antimicrobial action by serial dilution (MIC), M. tuberculosis; type: cell-based; conditions: Soton medium with 10% horse serum, 72-hour cultivation at 37° C.; for MIC: Mycobacterium tuberculosis
[3] = system: Mycobacterium smegmatis ATCC607; assay: Antimicrobial action by serial dilution (MIC), M. smegmatis; type: cell-based; conditions: for MIC: Mycolicibacterium smegmatis, ATCC607, M. smegmatis ATCC 607, medium N-1, 72-hour cultivation at 37° C.
[4] = Psychodepressive activity, behavioral score; type: in vivo, mice; conditions: per oral 300 mg/kg, one hour after dosing; total 60, less than 40 significant
Protocol: Each parameter scores 2 points for an each mouse that had unchanged behavior. The total point sum was 60 (2×10×3 mice). Reducing score to less than 40 one hour after dosing with a substance per oral (300 mg/kg) denoted significant behavioral depression. Haloperidol was utilized as a reference agent.

[5] = Analgesic activity, tail withdrawal from radiant heat; type: in vivo, mice
Protocol: The time needed to draw back a tail placed under a directed source of radiant heat was estimated in a group of 3 mice. Prolongation of the response time by more than 50% after intraperitoneal dosing a substance (30 mg/kg) indicated analgesic activity. Morphine sulfate (2 mg/kg) was utilized as a reference agent.

[6] = Antiulcerous action, water immersion stress with immobilization; type: in vivo, rats; conditions: 20 mg/kg perorally
Protocol: Antiulcerous activity of substances was tested on a model of experimental water immersion stress with immobilization. […] After that, gastric mucous membrane was investigated, number and sizes of ulcers were counted, ulceration index was determined (an average sum of ulcer lengths per one animal in a group).

[7] = system: Human's platelet aggregation; assay: Antiaggregational properties, ADP-induced platelet aggregation; type: cell-based; conditions: 100 μg/ml, ADP […], platelet-enriched human plasma
Text: Human's platelet aggregation was investigated in plasma of healthy 50±3 years donors that was enriched by thrombocytes, by means of aggregometer FRM-1. […] Magnitude of a maximum non-reversible platelet aggregation in the control samples (solvent) was adopted as 100%, and that in tested samples was counted as the percentage compared to the control.

[8] = Hepatoprotective activity, CCl4 liver damage (AlAT); type: in vivo, rats; conditions: for AlAT: 20 mg/kg perorally 30 minutes before and 7 hours after CCl4, 24 hours, CCl4 control 0.83 ± 0.21, intact 0.27 ± 0.04; for % of reducing AlAT: 20 mg/kg perorally, relative to CCl4 control
Protocol: CCl4 dissolved in 50% olive oil (1 ml/kg) was subcutaneously administrated to rats. Test substances were administrated perorally in a dose of 20 mg/kg 30 minutes before and 7 hours after the CCL4 administration. The activity of alanine-aminotranspherase (AlAT), which is a marker enzyme of liver parenchyma damage, was assessed twenty-four hours later. Reducing of enzyme amount by more than 30% relative to the control group was considered as evidence of hepatoprotective properties of the substance.
Silymarin in a dose of 100 mg/kg was used as a reference agent.

[9] = Hypoglycemic activity after glucose load; type: in vivo, mice; conditions: 100 mg/kg perorally, glucose 1000 mg/kg s.c.
Protocol: Test substance (100 mg/kg) was perorally administrated to fasted mice, and, immediately after that, solution of glucose (1000 mg/kg) was administrated subcutaneously. Glucose content in blood was determined in a hour by the orthotoluidine method. Reducing of glucose level by more than 20% relative to control animals indicated hypoglycemic properties. Glibenclamide (I mg/kg) was utilized as a reference agent.

[10] = system: primary culture of human lymphocytes (IFN-α production); assay: Interferon-inducing activity in primary culture of human lymphocytes; type: cell-based
Protocol: Interferon synthesis induction caused by the claimed compounds was conducted on a primary culture of human lymphocytes (it is these cells in a human organism that are the main producers of interferons). To obtain lymphocyte culture, fresh blood (within 12 hours after sampling) from healthy donors (not of group II) was used. To separate lymphocytes, heparinized blood obtained from healthy donor was centrifuged in a density gradient of ficoll-verografin of […] in order to extract a fraction of immunocompetent cells. This fraction was selected and diluted with the nutrient medium RPMI-1640, containing 5% of fetal calf serum, 0.3 mg/ml of L-glutamin, 100 un/ml of penicillin, and […] of streptomycin. The concentration of lymphocytes was considered after dying them with methylene blue and calculation of cell number in Goryaev chamber. Initial solutions of the claimed compounds were diluted with the nutrient medium RPMI-1640 so that the final concentrations of the compounds, which were obtained after introduction of lymphocyte suspension, constituted the raw: 100 μg/ml, 10 μg/ml, 1 μg/ml. The final concentration of lymphocytes in the induction mixture was 3×10^6 cell/ml.
In parallels to the test samples the following controls were done: • 1). Control of spontaneous production of interferons (IFN) by lymphocytes. • 2). […] Control of spontaneous production of interferons in presence of DMSO taken in an amount corresponding to the test samples.
Control and test samples were incubated for 24 hours at the temperature of 37° C. After incubation, the samples were centrifuged at 2,000 G to deposit cell elements, and IFN-containing supernatant was separate out of samples; then the supernatant was analyzed for the quantitative content of IFN. Cell deposition was resuspended in the previous volume of nutrient medium, coloured with vital dye trypan blue, and cell number was counted in the Goryaev chamber (as described above) to determine cytotoxic action of the compounds. The quantitative determination of content of IFN in control and test samples was conducted using the immunoenzyme test system Pro Con IF2 Plus, that is intended for determination of IFN-α, which is produced by TOO “Protein contour”. The solid-phase immunoenzyme method, utilizing horse radish peroxidase as an indicator enzyme, was used to determine the quantity of interferon in the samples. Activity of the bonded peroxidase was measured using an automatic photometer for microplates with a microprocessor at the wavelength of 450 nm.
Based on the obtained results, a calibrating curve was formed, which allows to obtain data expressed in international units (IU) of activity, using the microprocessor of the automatic photometer. The results of the analysis are expressed in IU of activity of IFN per ml in the given induction system, which contains 3×10^4 lymphocyte/ml. Each test and control point was investigated in four parallels.
Controls of immunoenzyme reaction: • 1. Control of DMSO with a nutrient medium. • 2. Control of system components (according to an instruction).
The obtained data were undergone a statistical analysis using t-criterion, and calculation of the confident interval of probability at p=0.05 was carried out. Coincidence of results in the parallel tests was analyzed.

[11] = system: Herpes virus of the type I (HSV-I/Leningrad/248/88); assay: Effect on Herpes virus, cytopathogenic action on Vero cells; type: cell-based, Herpes Simplex virus; conditions: compound 100 μg/ml
Protocol: An antiviral activity was determined with respect to Herpes virus of the type I (HSV-I/Leningrad/248/88) by means of commonly accepted method. Viruses were grown on a continuous culture of Vero cells that have been received from the Bank of Cell Cultures of the Institute of Cytology of the Russian Academy of Science.
A virus in a final concentration of […] and the claimed compounds dissolved in DMSO in final concentrations of 100, 10 and 1 mg/l were added to cells that were grown on the RPMI-1640 medium with 10% fetal calf serum and placed into wells of the 96-well plate. 5 separate wells were used for each of tested concentrations of an agent. The plate was incubated during 60 minutes at 38° C. in a CO2-incubator. After the incubation, the virus was removed and then a fresh medium containing claimed compounds in used concentrations was again introduced.
Results were evaluated basing on presence of cytopathogenic action on the cells after 36 hours of incubation at 38° C. in the CO2-incubator.
The next controls were used in the experiment: • 1. Control of cell culture (capability to grow properly) • 2. Control of the virus (evaluation of capability for reproduction) • 3. Control of an antiviral activity of an antiviral drug Acyclovir • 4. Control of compounds (toxicity of compounds) • 5. Control of a solvent (DMSO) for toxicity.
To estimate a cytopathic action of the virus, a quantity of the unchanged cells was calculated in 100 visual fields formed by a special net of an eyepiece of the inverted microscope.

[12] = Determination of maximal tolerable dose; type: in vivo; conditions: oral administration, mice, observed 72 hours; 300 was the maximally utilized one
Protocol: Tested substance was introduced perorally (in dose of 300 mg/kg) through a gastric tube or intraperitoneally (in dose of 100 mg/kg) to no-breed white mice with mass 18-20 g (each tested group consisted of 3 males and 3 females). Then the mouse state was observed during 72 hours. Absence of symptoms characteristic of toxic effects, or absence of animal death during the given time allows to make a conclusion that the toxicity of the test substance is low. If acute toxicity effects are observed, the dose is reduced to find maximal tolerable dose.

For `O=C1O[C@H]([C@@H](O)CO)C(O)=C1O` [Ascorbic acid, reference compound], the “IC50, suppressing chemiluminescence by 50%” value [1] was 2.39 µg/mL (≈ 13.6 µM).
Work on `CC[C@@H](CO)NCCN[C@@H](CC)CO` [Ethambutol] yielded an MIC [2] of 5 µg/mL (≈ 24.5 µM) and an MIC [3] of 5 µg/mL (≈ 24.5 µM).
In the case of `O=C(CCCN1CCC(O)(c2ccc(Cl)cc2)CC1)c1ccc(F)cc1` [Haloperidol, reference compound], the “Point number (behavioral depression)” value [4] is reported as 27.
`NNC(=O)c1ccncc1` [Isoniazid] showed an MIC [2] of 0.1 µg/mL (≈ 0.729 µM) and an MIC [3] of 1.5 µg/mL (≈ 10.9 µM).
In the case of `CN1CC[C@]23c4c5ccc(O)c4O[C@H]2[C@@H](O)C=C[C@H]3[C@H]1C5.O=S(=O)(O)O` [Morphine, Morphine sulfate, reference compound], the “Latent period of response, before dosing” value ([5]; before morphine sulfate 2 mg/kg) is reported as 8.3 and the “Latent period of response, 30 minutes after dosing” value ([5]; morphine sulfate 2 mg/kg) is reported as 14.6.
For `CC1COc2c(N3CCN(C)CC3)c(F)cc3c(=O)c(C(=O)O)cn1c23` (stereo not shown) [Ofloxacin], the MIC [2] was 0.5 µg/mL (≈ 1.38 µM) and the MIC [3] was 0.5 µg/mL (≈ 1.38 µM).
In the case of `CO[C@H]1/C=C/O[C@@]2(C)Oc3c(C)c(O)c4c(O)c(cc(O)c4c3C2=O)NC(=O)/C(C)=C\C=C\[C@H](C)[C@H](O)[C@@H](C)[C@@H](O)[C@@H](C)[C@H](OC(C)=O)[C@@H]1C` [Rifamycin], the MIC [2] is reported as 0.05 µg/mL (≈ 0.0717 µM) and the MIC [3] is reported as 0.25 µg/mL (≈ 0.358 µM).
Work on `[H]/N=C(/N)N[C@H]1[C@H](O)[C@@H](O)[C@H](O[C@@H]2O[C@@H](C)[C@](O)(C=O)[C@H]2O[C@@H]2O[C@@H](CO)[C@H](O)[C@@H](O)[C@@H]2NC)[C@@H](N/C(N)=N\[H])[C@@H]1O` [Streptomycin] yielded an MIC [2] of 0.2 µg/mL (≈ 0.344 µM) and an MIC [3] of 0.15 µg/mL (≈ 0.258 µM).
In the case of `O=C1NC(=O)N(C2CCCCC2)C(=O)C1=NO` [VIII], the “% of animals with ulcers” value ([6]; rats, 4 hours stress, control 100) is reported as 100%, the “% of reducing number of ulcers” value ([6]; versus control) is reported as −64% and the “% of reducing ulceration index” value ([6]; versus control) is reported as −35%. The Number of lesions ([6]; control 8.3 ± 2.5) was 3.0 ± 1.3, the ulceration index ([6]; control 10.5 ± 5.7) was 6.8 ± 4.4 and the “% of inhibition of platelet aggregation” value [7] was 68.9 ± 5.3%. The AlAT [8] was 0.48 ± 0.19 mmol/L/h, the “% of reducing AlAT” value [8] was −42% and the “% change of glucose relative to glucose control” value [9] was −18%. The Glucose in blood ([9]; after one hour, glucose control 8.26 ± 0.50) was 6.77 ± 0.61 mmol/L.
With `CN1C(=O)C(=NO)C(=O)N(C)C1=S` [XL] the “Content of IFN in induction mixture after 24-hour incubation” value (“Content of IFN in induction mixture” for short) ([10]; substance 1 mg/l) was 5.1 ± 1.0 IU/3 × 10^4 lymph./ml, the “Content of IFN in induction mixture” value ([10]; substance 10 mg/l) was 11.3 ± 1.5 IU/3 × 10^4 lymph./ml and the “Content of IFN in induction mixture” value ([10]; substance 100 mg/l) was 22.8 ± 1.0 IU/3 × 10^4 lymph./ml. The “MIC, M. tuberculosis” value [2] was 12.5 µg/mL (≈ 62.1 µM) and the “MIC, M. smegmatis” value [3] was 3.1 µg/mL (≈ 15.4 µM).
For `O=C1NC(=O)N(c2ccc(Br)cc2)C(=O)C1=NO` [XXIX], the “Quantity of the unchanged cells (number of cells in 100 visual fields)” value ([11]; Vero cells, 36 hours, cell control 10000) was 3000, the “percentage of protection of cells from virus” value ([11]; compared to the control of cell culture) was “(30%)” and the “% of inhibition of platelet aggregation” value [7] was 16.4 ± 3.1%. The AlAT [8] was 0.40 ± 0.04 mmol/L/h, the “% of reducing AlAT” value [8] was −52% and the “Point number (behavioral depression)” value [4] was 32. The “Maximal tolerable dose, concentration of test substances” value [12] was 300 mg/kg.
With `O=C1NC(=O)N(c2cccc(F)c2)C(=O)C1=NO` [XXVI] the “Maximal tolerable dose, concentration of test substances” value [12] was 300 mg/kg.
